Results from patent US20230397607A1, “COMPOSITIONS COMPRISING MEFENTRIFLUCONAZOLE” (BASF AGRO B.V., priority 2020, published 2023).
Like-named read-outs stand apart in the source and are kept apart here.

What was measured:
[1] = system: Qoi resistant isolate of Pyrenophora teres; assay: Microtiter test: activity against net blotch Pyrenophora teres on barley (PYRNTE); type: cell-based; details: single active, 7 days after inoculation
Text: 2. Activity Against Net Blotch Pyrenophora teres on Barley in the Microtiter Test (PYRNTE)
These percentages were converted into efficacies.

[2] = system: Septoria tritici; details: SEPTTR, single active, 7 days after inoculation
Description: Activity Against Leaf Blotch on Wheat Caused by Septoria tritici (SEPTTR)
The stock solutions were mixed according to the ratio, pipetted onto a micro titer plate (MTP) and diluted with water to the stated concentrations. A spore suspension of Septoria tritici in an aqueous biomalt or yeast-bactopeptone-glycerine or DOB solution was then added. The plates were placed in a water vapor-saturated chamber at a temperature of 18° C. Using an absorption photometer, the MTPs were measured at 405 nm 7 days after the inoculation.
An efficacy of 0 means that the growth level of the pathogens corresponds to that of the untreated control; an efficacy of 100 means that the pathogens were not growing.

## CC1CC(C)(C)c2cccc(NC(=O)c3cn(C)nc3C(F)F)c21 (stereo in doubt) [compound II, 3-(difluoromethyl)-N-[(3R)-2,3-dihydro-1,1,3-trimethyl-1H-inden-4-yl]-1-methyl-1H-pyrazole-4-carboxamide]
[1]; 0.004 ppm
  Observed efficacy: 0%
[1]; 0.016 ppm
  Observed efficacy: 10%
[1]; 0.063 ppm
  Observed efficacy: 37%
[2]; 0.016 ppm
  Observed efficacy: 0%
[2]; 0.063 ppm
  Observed efficacy: 17%

## CO/C=C(/C(=O)OC)c1ccccc1Oc1cc(Oc2ccccc2C#N)ncn1 [azoxystrobin (A.1.1), azoxystrobin]
[2]; 0.004 ppm
  Observed efficacy: 7%

## CC(O)(Cn1cncn1)c1ccc(Oc2ccc(Cl)cc2)cc1C(F)(F)F (stereo not drawn) [compound I, 2-[4-(4-chlorophenoxy)-2-(trifluoromethyl)phenyl]-1-(1,2,4-triazol-1-yl) propan-2-ol]
[1]; 0.00025 ppm
  Observed efficacy: 0%
[1]; 0.001 ppm
  Observed efficacy: 0%
[1]; 0.004 ppm
  Observed efficacy: 0%
[2]; 0.001 ppm
  Observed efficacy: 7%
[2]; 0.004 ppm
  Observed efficacy: 69%

## Cn1cc(C(=O)Nc2ccccc2-c2cc(F)c(F)c(F)c2)c(C(F)F)n1 [fluxapyroxad (A.3.9), fluxapyroxad]
[1]; 0.004 ppm
  Observed efficacy: 0%

## CC(C)c1ccc(Cl)cc1CN(C(=O)c1c(C(F)F)nn(C)c1F)C1CC1 [isoflucypram (A.3.26), isoflucypram]
[2]; 0.063 ppm
  Observed efficacy: 37%

## CON(C(=O)c1cn(C)nc1C(F)F)C(C)Cc1c(Cl)cc(Cl)cc1Cl (stereo not drawn) [pydiflumetofen (A.3.17), pydiflumetofen]
[1]; 0.063 ppm
  Observed efficacy: 10%

## COC(=O)N(OC)c1ccccc1COc1ccn(-c2ccc(Cl)cc2)n1 [pyraclostrobin (A.1.14), pyraclostrobin]
[2]; 0.001 ppm
  Observed efficacy: 9%
